Laboratory results as given in publication PMC4775937, “Combination Effects of Antimicrobial Peptides” (Antimicrobial Agents and Chemotherapy, 2016).
≈ marks a conversion by molar mass, not a printed value. Where two headings read alike, the source gives them in different places. Ends that are not written are not given here.

Columns and labels:
Escherichia coli MG1655 [1] = format: cell-based
Protocol: (§1) Escherichia coli MG1655 was grown in Luria-Bertani (LB) broth at 37°C with aeration at 220 rpm in 50-ml tubes. Two hundred microliters of overnight culture was resuspended into 15 ml fresh LB broth, cultured under the same conditions for an additional 2 h, and then used for subsequent assays. Mueller-Hinton (MH) broth was used for the assay of MICs and time-killing curves.
According to a standard protocol ([35]), stock solutions of AMPs were diluted in MH broth and then diluted in 96-well plates with a 2-fold gradient, that is, from 0.25 μg/ml to 128 μg/ml. All the gradients of antibiotics were from 0.02 μg/ml to 50 μg/ml, except that the gradient of ciprofloxacin was from 0.002 μg/ml to 1 μg/ml. Approximately 5 × 10^5 log-phase bacteria were added to each well. A positive control containing MH broth and bacteria and a negative control containing only MH broth were included in each plate, and plates were incubated at 37°C overnight.

Escherichia coli MG1655 [2] = test: Killing curves fitted to the Hill function (pharmacodynamic parameters); format: cell-based; conditions: brackets = 95% confidence interval
Protocol: as §1
Thus, Loewe additivity would result in a MIC of any one combination equal to the MIC of the individual drugs (see equations 5 and 6). Thus, 21 two-AMP combinations and 20 three-AMP combinations were generated. An AMP(s) was diluted, starting with 100× MIC, in a 96-well plate to form a 2-fold gradient of concentrations, and 2 × 10^6 log-phase bacteria were added to a total volume of 100 μl. The plates were incubated at 37°C. Killing was assessed within 1 h, as killing by AMPs is very fast ([36], [37]). Ten microliters of a mixture of AMPs and bacteria was taken out every 20 min and then immediately diluted in saline solution and plated on the solid agar plates. These solid agar plates were transferred into a 37°C incubator and cultured overnight for CFU determination. The limit of detection in our system is 100 CFUs.
To model the killing curve, the relationship between the concentration of AMP(s) and the killing and/or growth rate of exposed bacteria, we used a Hill function ([26]): (1) μ(a)=Emax (a/EC50)^κ/1+(a/EC50)^κ Here, μ(a) is the killing rate at a given concentration of AMP(s); a is a given concentration; Emax is the maximal killing rate of the given AMP(s). κ is the Hill coefficient. We then defined growth rate ψ(a) as follows: (2) ψ(a)=ψmax −μ(a) Here, ψmax is the maximal growth rate of bacteria without AMP(s). The maximum effect of AMP(s) is defined by (3) Emax =ψmax −ψmin Thus, the effect of AMP(s) in a given concentration, μ(a), can be rewritten as (4) μ(a)=(ψmax −ψmin )(a/zMIC)^κ/(a/zMIC)^κ−ψmin /ψmax zMIC is the estimated MIC. Growth rate and killing rate of bacteria are estimated from the time-kill curves as the change of CFU over time by using generalized linear regression. […]

[3] = E. coli MG1655, MH broth, 96-well plates, 2-fold gradient 0.25 to 128 μg/ml, approx. 5 × 10^5 log-phase bacteria per well, 37°C overnight

| Compound | MIC (Escherichia coli MG1655 [1]; [3]) [µg/mL] | also measured |
| --- | --- | --- |
| GNNRPVYIPQPRPPHPRL [Api, Apidaecin IB] | 4 | – |
| CC[C@H](C)[C@H](N)C(=O)N[C@@H](CC(C)C)C(=O)N1CCC[C@H]1C(=O)N[C@@H](Cc1c[nH]c2ccccc12)C(=O)N[C@@H](CCCCN)C(=O)N[C@@H](Cc1c[nH]c2ccccc12)C(=O)N1CCC[C@H]1C(=O)N[C@@H](Cc1c[nH]c2ccccc12)C(=O)N[C@@H](Cc1c[nH]c2ccccc12)C(=O)N1CCC[C@H]1C(=O)N[C@@H](Cc1c[nH]c2ccccc12)C(=O)N[C@@H](CCCNC(=N)N)C(=O)N[C@@H](CCCNC(=N)N)C(N)=O [Ind, Indolicidin] | 4 (≈ 2.1 µM) | – |
| GIGKFLKKAKKFGKAFVKILKK-NH2 [Pex, pexiganan] | 2 | – |
| KWKLFKKIEKVGQNIRDGIIKAGPAVAVVGQATQIAK-NH2 [Cec, Cecropin A] | 1 | κ (lower,upper) (Escherichia coli MG1655 [2]; Hill coefficient (steepness of pharmacodynamic curve), Hill function fit (MCMC) of time-kill data, E. coli MG1655, 37°C, within 1 h): 6.02(5.17,6.84); zMIC (lower,upper) (Escherichia coli MG1655 [2]; estimated MIC from Hill function fit (MCMC) of time-kill data, 2-fold gradient from 100× MIC, 2 × 10^6 log-phase bacteria in 100 μl, 37°C, CFU every 20 min within 1 h, combinations 1:1 or 1:1:1 by volume): 0.32(0.28,0.37) times of original MIC; ψmin (lower,upper) (Escherichia coli MG1655 [2]; minimal growth rate of bacteria, Hill function fit (MCMC) of time-kill data, E. coli MG1655, 37°C, within 1 h): -5.83(-5.89,-5.77) |
| FKRIVQRIKDFLR [LL, LL 17-29] | – | MIC (Escherichia coli MG1655 [1]; MG1655, 2 h): 16 µg/mL |
